Data on three molecules can be found in ChEMBL document CHEMBL6092174, “Synthesis and anti-influenza virus activity of substituted dibenzoxepine-based baloxavir derivatives” (Eur J Med Chem, 2024).

Each structure is given as a SMILES string.

This test relates to Influenza A virus. Description: Antiviral activity against Influenza A virus NA-H274Y (A/PR/8/34) infected in dog MDCK cells assessed as reduction in cytopathic effect incubated for 2 days. In kind it is functional, organism-based. For orientation: Cytopathic effects are the visible damage that an infection or toxin causes in cultured cells.

As to `O=C1c2c(O)c(=O)ccn2N([C@H]2c3ccc(F)cc3COc3ccccc32)[C@@H]2COCCN12`, the EC50 (as a rule, the concentration at which the effect is half-maximal) is 4.2 nM.

As to `O=C1c2c(O)c(=O)ccn2N([C@@H]2c3ccccc3OCc3c(Cl)cccc32)[C@@H]2COCCN12`, the EC50 worked out at 20.5 nM.

Take `O=C1c2c(O)c(=O)ccn2N([C@@H]2c3ccccc3SCc3c2ccc(F)c3F)[C@@H]2COCCN12` [BALOXAVIR]: the EC50 was determined as 2.18 nM.
